Reference: patent publication US11591367B2, “Melanocortin-1-receptor agonists” (DSM IP ASSETS B.V., priority 2016, dated 2023)
Residues, ends and D or L forms follow the SMILES beside them.

These compounds were tested against T1, human MC1 receptor (Homo sapiens, UniProt Q01726) (assay: Human MC1 receptor cAMP HTRF functional assay (MC1R stimulation)). Conditions: not given.
T1 construct: expressed in transfected cells; host or cells: Chinese Hamster Ovary (CHO) cells
Type: cell-based
Protocol: Human MC1 Receptor Using cAMP HTRF Functional Assay:
Twenty seven (27) compounds were tested for agonist activity at the human MC1 receptor using cAMP HTRF (homogeneous time-resolved fluorescence) assays at eight (8) concentrations and in duplicate.
On the day of experimentation, compounds were tested at several concentrations in duplicate wells (n=2) to obtain a dose-response curve and an estimated EC50 value. Values obtained for the reference compound were compared to historical values obtained from the same receptor and used to validate the experimental session. For replicate determinations, the maximum variability tolerated in the test was of +/−20% around the average of the replicates.
Assay: After cultivation Chinese Hamster Ovary (CHO) cells were detached and incubated at a specific cell density in assay buffer. At this stage the CHO cells express the human MC1R at their surface. Agonist compounds were added at determined concentration and incubated for 30 min. Cells were lysed in detection buffer in order to extract cAMP. The amount of cAMP within the cells correlates with GPCR-activity, meaning that in this assay it correlates with MC1R-activity. cAMP was detected in a competitive HTRF assay for binding to an anti-cAMP-antibody.

T1 sequence (Q01726 whole entry): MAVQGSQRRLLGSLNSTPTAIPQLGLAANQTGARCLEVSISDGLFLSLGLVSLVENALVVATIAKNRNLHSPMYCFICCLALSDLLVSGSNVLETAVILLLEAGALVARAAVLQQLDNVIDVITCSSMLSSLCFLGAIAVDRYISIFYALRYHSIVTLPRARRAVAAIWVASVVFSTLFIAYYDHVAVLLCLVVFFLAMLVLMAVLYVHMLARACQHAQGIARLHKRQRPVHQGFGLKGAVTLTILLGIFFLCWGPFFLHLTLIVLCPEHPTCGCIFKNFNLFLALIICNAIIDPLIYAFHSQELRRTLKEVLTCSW

| SMILES | EC50 [nM] |
| --- | --- |
| CCCN(CCC)C(=O)[C@H](Cc1c[nH]c2ccccc12)NC(=O)[C@H](CCCNC(=N)N)NC(=O)[C@@H](Cc1ccccc1)NC(=O)[C@@H](Cc1c[nH]cn1)NC(=O)CNC(=O)c1ccccc1 [Compound R1, Bz-Gly-D-His-D-Phe-Arg-Trp-N(Propyl)2 *2TFA, reference compound] (HELM PEPTIDE1{[O=C(c1ccccc1)[*:2]].G.[dH].[dF].R.W.[CCCN(CCC)[*:1]]}$$$$V2.0) | 36 |
| CCCN(CCC)C(=O)[C@H](Cc1c[nH]c2ccccc12)NC(=O)[C@H](CCCNC(=N)N)NC(=O)[C@H](Cc1ccccc1)NC(=O)[C@H](Cc1c[nH]cn1)NC(=O)CNC(=O)c1ccccc1 [Compound R2, Bz-Gly-His-Phe-Arg-Trp-N(Propyl)2 *2TFA, reference compound] (HELM PEPTIDE1{[O=C(c1ccccc1)[*:2]].G.H.F.R.W.[CCCN(CCC)[*:1]]}$$$$V2.0) | 51.4 |
| CCCN(CCC)C(=O)[C@H](Cc1c[nH]c2ccccc12)NC(=O)[C@@H](CCCNC(=N)N)NC(=O)[C@@H](Cc1ccccc1)NC(=O)[C@H](Cc1c[nH]cn1)NC(=O)CNC(=O)c1ccccc1 [Compound R3, Bz-Gly-His-D-Phe-D-Arg-Trp-N(Propyl)2 *2TFA, reference compound] (HELM PEPTIDE1{[O=C(c1ccccc1)[*:2]].G.H.[dF].[dR].W.[CCCN(CCC)[*:1]]}$$$$V2.0) | 70.1 |

Same assay, conditions: agonist activity; CHO cells expressing human MC1R; 30 min incubation; 8 concentrations in duplicate; read-out: EC50 [nM], MC1R stimulation assay

| SMILES | EC50 [nM] |
| --- | --- |
| N=C(N)NCCC[C@H](NC(=O)[C@@H](Cc1ccccc1)NC(=O)[C@H](Cc1c[nH]cn1)NC(=O)CNC(=O)c1ccccc1)C(=O)N[C@@H](Cc1c[nH]c2ccccc12)C(N)=O [(I-a), Bz-Gly-His-D-Phe-Arg-Trp-NH2 *2TFA] (HELM PEPTIDE1{[O=C(c1ccccc1)[*:2]].G.H.[dF].R.W.[am]}$$$$V2.0) | 0.041 |
| N=C(N)NCCC[C@H](NC(=O)[C@@H](Cc1ccccc1)NC(=O)[C@H](Cc1c[nH]cn1)NC(=O)CNC(=O)c1ccccc1)C(=O)N[C@H](Cc1ccc2ccccc2c1)C(N)=O [(I-b), Bz-Gly-His-D-Phe-Arg-D-2-NaphAla-NH2 *2TFA] (HELM PEPTIDE1{[O=C(c1ccccc1)[*:2]].G.H.[dF].R.[O=C([C@@H](Cc1ccc2ccccc2c1)N[*:1])[*:2]].[am]}$$$$V2.0) | 0.25 |
| N=C(N)NCCC[C@H](NC(=O)[C@@H](Cc1ccccc1)NC(=O)[C@H](Cc1c[nH]cn1)NC(=O)CNC(=O)c1ccccc1)C(=O)N[C@@H](Cc1ccc2ccccc2c1)C(N)=O [(I-c), Bz-Gly-His-D-Phe-Arg-L-2-NaphAla-NH2 *2TFA] (HELM PEPTIDE1{[O=C(c1ccccc1)[*:2]].G.H.[dF].R.[O=C([C@H](Cc1ccc2ccccc2c1)N[*:1])[*:2]].[am]}$$$$V2.0) | 0.11 |
| CCCN(CCC)C(=O)[C@@H](Cc1c[nH]c2ccccc12)NC(=O)[C@H](CCCNC(=N)N)NC(=O)[C@@H](Cc1ccccc1)NC(=O)[C@H](Cc1c[nH]cn1)NC(=O)CNC(=O)c1ccccc1 [(I-d), Bz-Gly-His-D-Phe-Arg-D-Trp-N(Propyl)2 *2TFA] (HELM PEPTIDE1{[O=C(c1ccccc1)[*:2]].G.H.[dF].R.[dW].[CCCN(CCC)[*:1]]}$$$$V2.0) | 0.42 |
| CCCN(CCC)C(=O)[C@H](Cc1c[nH]c2ccccc12)NC(=O)[C@H](CCCNC(=N)N)NC(=O)[C@@H](Cc1ccccc1)NC(=O)[C@H](Cc1c[nH]cn1)NC(=O)CNC(=O)c1ccccc1 [(I-e), Bz-Gly-His-D-Phe-Arg-Trp-N(Propyl)2 *2TFA] (HELM PEPTIDE1{[O=C(c1ccccc1)[*:2]].G.H.[dF].R.W.[CCCN(CCC)[*:1]]}$$$$V2.0) | 0.88 |
| CCCCCCCCNC(=O)[C@H](Cc1c[nH]c2ccccc12)NC(=O)[C@H](CCCNC(=N)N)NC(=O)[C@@H](Cc1ccccc1)NC(=O)[C@H](Cc1c[nH]cn1)NC(=O)CNC(=O)c1ccccc1 [(I-f), Bz-Gly-His-D-Phe-Arg-Trp-NHOctyl *2TFA] (HELM PEPTIDE1{[O=C(c1ccccc1)[*:2]].G.H.[dF].R.W.[CCCCCCCCN[*:1]]}$$$$V2.0) | 1.06 |
| N=C(N)NCCC[C@H](NC(=O)[C@@H](Cc1ccccc1)NC(=O)[C@H](Cc1c[nH]cn1)NC(=O)CNC(=O)c1ccccc1)C(=O)N[C@H](Cc1ccccc1)C(N)=O [(I-g), Bz-Gly-His-D-Phe-Arg-D-Phe-NH2 *2TFA] (HELM PEPTIDE1{[O=C(c1ccccc1)[*:2]].G.H.[dF].R.[dF].[am]}$$$$V2.0) | 1.79 |
| NCC[C@H](NC(=O)[C@@H](Cc1ccccc1)NC(=O)[C@H](Cc1c[nH]cn1)NC(=O)CNC(=O)c1ccccc1)C(=O)N[C@@H](Cc1c[nH]c2ccccc12)C(N)=O [(I-h), Bz-Gly-His-D-Phe-Dab-Trp-NH2 *2TFA] (HELM PEPTIDE1{[O=C(c1ccccc1)[*:2]].G.H.[dF].[Dab].W.[am]}$$$$V2.0) | 7.51 |
| N=C(N)NCCC[C@H](NC(=O)[C@@H](Cc1ccccc1)NC(=O)[C@H](Cc1cnc[nH]1)NC(=O)CNC(=O)c1ccccc1)C(=O)N(CCc1c[nH]c2ccccc12)CC(N)=O [(I-i), Bz-Gly-His-D-Phe-Arg-(N-IndEt)Gly-NH2 *2TFA] (HELM PEPTIDE1{[O=C(c1ccccc1)[*:2]].G.H.[dF].R.[O=C(CN(CCc1c[nH]c2ccccc12)[*:1])[*:2]].[am]}$$$$V2.0) | 4.4 |
| N=C(N)NCCC[C@H](NC(=O)[C@@H](Cc1ccccc1)NC(=O)[C@H](Cc1c[nH]cn1)NC(=O)CNC(=O)c1ccccc1)C(=O)NCCc1c[nH]c2ccccc12 [Compound R4, Bz-Gly-His-D-Phe-Arg-Tryptamide *2TFA, reference compound] (HELM PEPTIDE1{[O=C(c1ccccc1)[*:2]].G.H.[dF].R.[c1ccc2c(CCN[*:1])c[nH]c2c1]}$$$$V2.0) | 42.9 |

These compounds were tested on Skin samples (from abdominal plastic surgery) (assay: Ex-vivo skin pigmentation trial (melanin amount, Fontana-Masson stain)). Conditions: 4 μl/200 μM of active applied topically daily; melanin amount at day 6; % increase versus untreated.
Type: cell-based
Protocol: Skin samples (from abdominal plastic surgery) have been cut in pieces of approx. 8×3 mm (Øx thickness) and were cultured up to day 6 in an air-liquid interface in a perforated ring of stainless steel in contact with a culture medium (modified Williams'E medium), the culture medium has been renewed every three days. Six skin specimens have been used for each treatment. Each test sample (4 μl/200 μM of active) has been applied topically on top of each piece after gentle cleaning of the surface with a cotton pad followed by covering with a 6 ø mm delivery membrane, which procedure has been repeated daily. After 6 days of incubation, the melanin amount was assessed on twelve skin sections for each treatment by staining using a modified Fontana-Masson stain. The amount of melanin present in each slide has been evaluated by estimating the intensity and the distribution of grey tone: 8-bit grey-scale images for each treatment have been captured at the microscope. Then the colour space of the images have been transformed from RGB into L*a*b* images and each pixel of the picture has been evaluated according to its L* values. The obtained results have been transformed in ranks of L* and then normalized on the ratio between the selected area and the area of the slide. The result is indicated as % increase versus untreated at day 6.

| SMILES | skin pigmentation increase versus untreated |
| --- | --- |
| N=C(N)NCCC[C@H](NC(=O)[C@@H](Cc1ccccc1)NC(=O)[C@H](Cc1c[nH]cn1)NC(=O)CNC(=O)c1ccccc1)C(=O)N[C@@H](Cc1c[nH]c2ccccc12)C(N)=O [(I-a), Bz-Gly-His-D-Phe-Arg-Trp-NH2 *2TFA] (HELM PEPTIDE1{[O=C(c1ccccc1)[*:2]].G.H.[dF].R.W.[am]}$$$$V2.0) | +18% |
| CCCN(CCC)C(=O)[C@@H](Cc1c[nH]c2ccccc12)NC(=O)[C@H](CCCNC(=N)N)NC(=O)[C@@H](Cc1ccccc1)NC(=O)[C@H](Cc1c[nH]cn1)NC(=O)CNC(=O)c1ccccc1 [(I-d), Bz-Gly-His-D-Phe-Arg-D-Trp-N(Propyl)2 *2TFA] (HELM PEPTIDE1{[O=C(c1ccccc1)[*:2]].G.H.[dF].R.[dW].[CCCN(CCC)[*:1]]}$$$$V2.0) | +21% |
